{"source": "patent US20210308196A1", "about": "“COMPOSITIONS AND METHODS TO PROMOTE HOST DEFENSE AND STIMULATE, EXPAND, AND/OR RESET T CELL REPERTOIRES” (EVOLVE BIOSYSTEMS, INC., priority 2018, published 2021)", "assay_type_in_all_cases": "in vivo, human", "key": {"[1]": {"tested_on": "fatty acid binding proteins (FABPs) and glutathione S-transferase (α-GST)", "experiment": "Urine FABPs and α-GST (MILLIPLEX MAP luminex assay)", "settings": "treatment group", "text": "Glutathione S-transferases (α-GST) are enzymes present predominantly in liver, kidney and intestinal epithelial cells that are responsible for detoxification of intracellular toxins through conjugation to glutathione. In states of increased intestinal inflammation and permeability, plasma levels of (α-GST) are a peripheral marker of intestinal epithelial cell injury."}, "[2]": {"tested_on": "TNF", "experiment": "Fecal TNF expression", "settings": "treatment group"}, "[3]": {"tested_on": "TLR2, TLR4, TNF and COX-2", "experiment": "qPCR of inflammatory markers in sloughed off intestinal epithelial cells", "settings": "treatment group", "text": "Expression of inflammatory markers including Toll like receptor (TLR) 2 and TLR4, COX-2 and TNF in intestinal epithelial cells: Previous data has implemented TLR2 in controlling mucosal inflammation by regulating intestinal epithelial barrier function. Further, a significant TLR4-dependent increase in Cox-2 expression has been shown in intestinal epithelial cells post exposure to lipopolysaccharide. TNF-α, a cytokine that plays a key role in mucosal inflammation, is readily detectable at the expression and protein levels in children who have various intestinal pathologies."}, "[4]": {"experiment": "Immune development in C-section infants", "settings": "baseline to three months", "text": "Approximately 25 mother-infant dyads are recruited to provide a cord blood sample and two infant blood samples, one on day 0-4 and another at 3 months old (between 84 and 104). Markers of immune function will be analysed and compared to the development of the gut microbiome.\nThe study design is described in FIG. 16. The change in levels of immune cells and markers from baseline (Day 0-Day 4) to three months (Day 84-Day 104) will be measured. The correlation between gut microbiota composition and abundance and levels of immune cells and markers may also be measured. The differences between B. infantis and placebo supplementation on levels of immune cells and markers in breast-fed infants.\nThe differences between B. infantis and placebo supplementation on vaccine response (antibody titers). Blood samples are collected at baseline and month-three postpartum for evaluation of peripheral blood mononuclear cell characterization (including regulatory T cells) and vaccine response."}}}
{"substance": "Bifidobacterium longum subsp. infantis EVC001 [B. infantis EVC001]", "values": [{"measurement": "Urine levels of FABPs and α-GST", "setting": "[1]", "result": "significantly reduced"}, {"measurement": "Fecal TNF expression", "setting": "[2]", "result": "significantly reduced"}, {"measurement": "Expression of TLR2, TLR4, TNF and COX-2", "setting": "[3]", "result": "significantly reduced"}, {"measurement": "Inflammation", "setting": "[4]", "result": "reduced"}, {"measurement": "Th17 and IL-17 level", "setting": "[4]", "result": "decreased"}, {"measurement": "Tregs", "setting": "[4]", "result": "increased"}]}
